Patent US20070254314A1, “Methods of treating autism and autism spectrum disorders” (priority 2004, published 2007)
Where two headings read alike, the source gives them in different places.

Legend:
[1] = From the text: (§1) The toxic metals were reported as μg/g creatinine in order to account for urine dilution variations.
as §1, §1, §1

[2] = tested on: neuronal damage in tissue culture; conditions: cited from earlier work
[3] = tested on: subject suffering from autism or an autism spectrum disorder; assay: Clinical observation of symptoms (physician, parents, educators); format: in vivo, human
[4] = following three days of oral chelation with DMSA; cited from earlier work
chick embryo = conditions: single 50 μg of mercury dose; cited from earlier work
neurons = conditions: nanomolar (nM) to micromolar (μM) concentrations, within hours of exposure; cited from earlier work
susceptible mouse strain = conditions: weight- and age-adjusted 1990s US immunization schedule; cited from earlier work
[5] = cited from earlier work
[6] = tested on: rats of the JCL-SD strain; conditions: 0.3 to 2 mg/kg intravenously; male more susceptible; cited from earlier work
[7] = Child X (autistic person), urine collected Nov. 5, 2000, during DMSA treatment, creatinine 43.4 mg/dL
[8] = Child X, urine collected Sep. 30, 2001, during DMSA treatment, creatinine 54 mg/dL
[9] = Child Y (autistic person), urine collected Jun. 29, 2002, during DMSA treatment, creatinine 6.9 mg/dL
[10] = Child Y, urine collected Dec. 24, 2002, during DMSA treatment, creatinine 8.6 mg/dL

Row | Compound | Toxic metals in urine, Results [1, 7] | Toxic metals in urine, Results [1, 8] | Toxic metals in urine, Results [1, 9] | Toxic metals in urine, Results [1, 10] | other results
1 | Cadmium | 1.4 μg/g creatinine | 0.5 μg/g creatinine | <dl | 1.6 μg/g creatinine | 
2 | Arsenic | 98 μg/g creatinine | 37 μg/g creatinine | 31 μg/g creatinine | 23 μg/g creatinine | 
3 | estrogen |  |  |  |  | Effect of concurrent exposure on mercury induced neuronal damage [2]: ameliorated
4 | C[C@]12CC[C@H]3[C@@H](CCC4=CC(=O)CC[C@@]43C)[C@@H]1CC[C@@H]2O [testosterone] |  |  |  |  | Effect of concurrent exposure on mercury induced neuronal damage [2]: exacerbated
5 | Thallium | 0.2 μg/g creatinine | 0.2 μg/g creatinine | 0.9 μg/g creatinine | 0.6 μg/g creatinine | 
6 | Bismuth | 0.8 μg/g creatinine | <dl | <dl | <dl | 
7 | Tungsten | <dl | 0.3 μg/g creatinine | <dl | 1.6 μg/g creatinine | 
8 | Lead | 12 μg/g creatinine | 8.6 μg/g creatinine | <dl | <dl | 
9 | O=C(O)[C@@H](S)[C@@H](S)C(=O)O [DMSA, meso-2,3-dimercaptosuccinic acid] |  |  |  |  | Clinical improvement as a result of DMSA treatment ([3]; Child X): some improvement; Improvement in autism on DMSA treatment ([3]; Child Y): did not show significant improvement; Urinary mercury concentration, autistic children versus matched normal controls [4]: approximately 6 fold; Mercury in urine on DMSA treatment ([1]; Child X, DMSA Oct. 21, 2000 through Feb. 3, 2002): spilled toxic levels of mercury in their urine; Mercury in urine on DMSA treatment ([1]; Child Y, DMSA Jun. 26, 2002 to May 2, 2003): spilled toxic levels of mercury in their urine
10 | Antimony | 0.4 μg/g creatinine | <dl* | <dl | <dl | 
11 | C[CH2][Hg][S]c1ccccc1C(=O)[O-].[Na+] [thimerosal] |  |  |  |  | Fetal lethality and teratogenicity compared to controls (chick embryo): significant fetal lethality and teratogenecity; Effects on neurons (neurons): inducing neuronal death, neurodegeneration, membrane damage, and DNA damage; Neurotoxic effects (susceptible mouse strain): autistic symptoms in a susceptible mouse strain; Passage of the blood-brain barrier ([5]; infant monkeys, doses comparable to the US dosing schedule): crosses the blood-brain barrier; Half-life of inorganic mercury in the brain ([5]; infant monkeys): > 120 days; Maximum mercury concentration observed in the brain ([5]; infant monkeys): approximately 50 parts-per-billion; Overall half-life of mercury in the brain ([5]; infant monkeys): approximately 24 days; Inorganic mercury in the brains ([5]; thimerosal-treated infant monkeys, average following the dosing schedule): 16 parts-per-billion
12 | Platinum | 0.2 μg/g creatinine | <dl | <dl | <dl | 
13 | Aluminum | 26 μg/g creatinine | 14 μg/g creatinine | <dl* | <dl* | 
14 | Beryllium | <dl* | <dl | <dl | <dl | 
15 | [Cl][Hg][Cl] [mercuric chloride] |  |  |  |  | Renal toxicity [6]: acute renal tubular necrosis was produced
